Data set [1] addresses T1, hERG (KCNH2) (Homo sapiens, UniProt Q12809). The experiment in a line: Inhibition of hERG expressed in HEK293 cells at 3 uM by manual patch clamp assay relative to control. It is filed as toxicity, cell-based. As to conditions: HEK293 cells expressing hERG.
The target of data set [2] is T2, Protein cereblon/Interleukin-1 receptor-associated kinase 4 (Homo sapiens, UniProt Q9NWZ3+Q96SW2). The experiment in a line: PROTAC activity at CRBN/IRAK4 in human THP-1 cells assessed as induction of IRAK4 degradation incubated for 24 hrs by HiBiT lytic reagent based analysis. It is filed as cell-based.
Target sequence in this assay (Q9NWZ3 whole entry): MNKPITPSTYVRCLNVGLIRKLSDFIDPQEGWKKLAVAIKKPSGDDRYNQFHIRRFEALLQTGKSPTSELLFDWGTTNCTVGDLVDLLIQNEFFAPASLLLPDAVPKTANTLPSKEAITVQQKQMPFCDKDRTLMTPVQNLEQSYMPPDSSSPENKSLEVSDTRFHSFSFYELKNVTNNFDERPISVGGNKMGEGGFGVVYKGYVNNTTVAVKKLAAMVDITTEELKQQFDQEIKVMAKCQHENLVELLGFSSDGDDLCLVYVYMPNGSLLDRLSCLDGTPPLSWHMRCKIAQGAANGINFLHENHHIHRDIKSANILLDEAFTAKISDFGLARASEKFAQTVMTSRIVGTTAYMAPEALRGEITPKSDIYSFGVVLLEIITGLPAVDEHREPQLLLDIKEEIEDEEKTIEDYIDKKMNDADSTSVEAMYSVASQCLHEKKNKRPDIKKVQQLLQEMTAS
Target sequence in this assay (Q96SW2 whole entry): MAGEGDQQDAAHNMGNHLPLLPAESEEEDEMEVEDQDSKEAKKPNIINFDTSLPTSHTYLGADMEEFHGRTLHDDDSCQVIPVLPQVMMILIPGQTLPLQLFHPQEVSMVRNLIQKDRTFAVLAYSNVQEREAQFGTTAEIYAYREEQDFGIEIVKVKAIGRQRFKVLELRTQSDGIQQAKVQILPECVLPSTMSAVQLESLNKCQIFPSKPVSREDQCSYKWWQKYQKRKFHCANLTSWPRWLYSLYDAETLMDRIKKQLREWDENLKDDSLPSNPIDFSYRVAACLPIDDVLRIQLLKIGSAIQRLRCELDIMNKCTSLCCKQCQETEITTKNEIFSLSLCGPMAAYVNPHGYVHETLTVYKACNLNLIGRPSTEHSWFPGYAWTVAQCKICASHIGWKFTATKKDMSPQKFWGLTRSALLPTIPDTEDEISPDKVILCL
Data set [3] addresses T2, Protein cereblon/Interleukin-1 receptor-associated kinase 4. The experiment in a line: PROTAC activity at CRBN/IRAK4 in human THP-1 cells assessed as induction of IRAK4 degradation incubated for 24 hrs by HiBiT lytic reagent based analysis relative to control. It is filed as cell-based.
Target sequence in this assay (Q96SW2 whole entry, looked up): as the sequence (Q96SW2 whole entry) above
Target sequence in this assay (Q9NWZ3 whole entry, looked up): as the sequence (Q9NWZ3 whole entry) above
The nature of data set [4]: Metabolic stability in rat liver microsome assessed as half life at 1 uM measured up to 60 mins in presence of NADPH by LC-MS/MS analysis. It is filed as ADME. The note with it: liver microsomes.
In data set [5] the target is T1, hERG (KCNH2). Kind of data set: Inhibition of hERG expressed in HEK293 cells at 1 uM by manual patch clamp assay relative to control. The data set is classed as toxicity, cell-based. The note with it: HEK293 cells expressing hERG.
Data set [6] in a line: Metabolic stability in cynomolgus monkey liver microsome assessed as half life at 1 uM measured up to 60 mins in presence of NADPH by LC-MS/MS analysis. The data set is classed as ADME, Macaca fascicularis. As to conditions: liver microsomes.
A short description of data set [7]: Metabolic stability in mouse liver microsome assessed as half life at 1 uM measured up to 60 mins in presence of NADPH by LC-MS/MS analysis. The data set is classed as ADME. The note with it: liver microsomes.
The nature of data set [8]: Metabolic stability in human liver microsome assessed as half life at 1 uM measured up to 60 mins in presence of NADPH by LC-MS/MS analysis. It is filed as ADME. The note with it: liver microsomes.
The nature of data set [9]: Metabolic stability in dog liver microsome assessed as half life at 1 uM measured up to 60 mins in presence of NADPH by LC-MS/MS analysis. As to conditions: liver microsomes. It is filed as ADME, Canis lupus familiaris.

Structures are written as SMILES.

The source of these data is ChEMBL document CHEMBL6182949 (J Med Chem, 2025).

T1 sequence (Q12809 whole entry): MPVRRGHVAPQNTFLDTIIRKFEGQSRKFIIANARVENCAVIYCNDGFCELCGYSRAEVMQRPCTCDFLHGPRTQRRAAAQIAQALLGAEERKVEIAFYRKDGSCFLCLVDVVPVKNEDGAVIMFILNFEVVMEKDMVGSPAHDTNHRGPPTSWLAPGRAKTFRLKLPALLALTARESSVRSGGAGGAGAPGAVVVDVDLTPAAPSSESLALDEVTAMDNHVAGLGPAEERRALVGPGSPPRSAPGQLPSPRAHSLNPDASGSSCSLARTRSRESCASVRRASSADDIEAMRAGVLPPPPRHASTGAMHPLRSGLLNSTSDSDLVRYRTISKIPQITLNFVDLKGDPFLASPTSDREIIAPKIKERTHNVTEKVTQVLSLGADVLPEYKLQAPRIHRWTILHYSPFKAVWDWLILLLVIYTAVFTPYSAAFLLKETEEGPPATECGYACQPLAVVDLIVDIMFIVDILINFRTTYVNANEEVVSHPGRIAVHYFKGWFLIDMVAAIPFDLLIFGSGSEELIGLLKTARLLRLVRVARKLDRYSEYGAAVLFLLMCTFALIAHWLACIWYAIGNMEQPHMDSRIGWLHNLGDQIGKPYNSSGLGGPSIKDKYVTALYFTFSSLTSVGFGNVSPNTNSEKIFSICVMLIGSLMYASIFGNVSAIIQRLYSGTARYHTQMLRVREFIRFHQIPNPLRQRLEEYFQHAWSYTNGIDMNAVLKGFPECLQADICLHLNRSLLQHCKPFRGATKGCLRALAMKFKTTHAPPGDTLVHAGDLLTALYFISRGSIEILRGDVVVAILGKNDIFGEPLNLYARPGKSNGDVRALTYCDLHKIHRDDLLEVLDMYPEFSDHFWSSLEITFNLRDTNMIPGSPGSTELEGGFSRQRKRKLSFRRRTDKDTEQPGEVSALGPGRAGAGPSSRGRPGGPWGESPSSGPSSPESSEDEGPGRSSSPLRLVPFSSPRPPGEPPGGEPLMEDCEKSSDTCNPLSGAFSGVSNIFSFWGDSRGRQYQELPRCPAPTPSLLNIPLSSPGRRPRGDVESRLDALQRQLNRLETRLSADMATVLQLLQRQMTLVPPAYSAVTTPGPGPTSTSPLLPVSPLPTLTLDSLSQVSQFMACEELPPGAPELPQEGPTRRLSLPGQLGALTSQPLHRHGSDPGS

For the molecule `Cn1c(=O)n(C2CCC(=O)NC2=O)c2cccc(C#CCO[C@H]3CC[C@H](CN4CCC5(CC4)Cc4cc(NC(=O)c6cnn7cccnc67)c(N6CCC(CO)CC6)cc4C5)CC3)c21` (stereo partly drawn), on hERG (KCNH2) [1], the inhibition at 3 µM was determined as 46%. In data set [2], the DC50 was found to be 2.77 nM. Moreover, the Emax in [3] stood at 78%.
For the molecule `Cn1c(=O)n(C2CCC(=O)NC2=O)c2cccc(C#CCO[C@H]3CC[C@H](CN4CCC5(CC4)Oc4cc(NC(=O)c6cnn7cccnc67)c(N6CCC(CO)CC6)cc4O5)CC3)c21` (stereo partly drawn), the DC50 in [2] was 10.4 nM. Further, the Emax in data set [3] stood at 78%.
Take `Cn1c(=O)n(C2CCC(=O)NC2=O)c2cccc(C#CCO[C@H]3CC[C@H](CN4CCC5(CC4)Cc4cc(NC(=O)c6cnn7cc(CO)cnc67)c(N6CCC(CO)CC6)cc4O5)CC3)c21` (stereo partly drawn): the half-life at 1 µM in data set [4] is over 3.07 h; in data set [6], over 3.07 h; in [7] it was 1.3 h; in data set [8], over 3.07 h; in [9], over 3.07 h. This molecule also had an inhibition at 1 µM against hERG (KCNH2) [5] of 4%. Moreover, the DC50 in [2] is 3.32 nM. The Emax in data set [3] stood at 90%.
Take `Cn1c(=O)n(C2CCC(=O)NC2=O)c2cccc(C#CCOC3CCN(CC(=O)N4CCC5(CC4)Cc4cc(NC(=O)c6cnn7cccnc67)c(N6CCC(CO)CC6)cc4O5)CC3)c21` (stereo not drawn): the inhibition at 3 µM at hERG (KCNH2) [1] was 8%. In data set [2], the DC50 came out at 2.18 nM. In addition, the half-life at 1 µM in data set [7] was determined as 1.67 h; in data set [8], 0.15 h; in [9] it was 0.2 h.
`Cn1c(=O)n(C2CCC(=O)NC2=O)c2cccc(C#CCO[C@H]3CC[C@@H](CN4CCC5(CC4)Cc4cc(NC(=O)c6cnn7cccnc67)c(N6CCC(CO)CC6)cc4O5)CC3)c21` (stereo partly drawn): the half-life at 1 µM in data set [4] worked out at 1.47 h; in [6], 0.183 h; in [7] it was 1.98 h; in data set [8], 0.817 h; in data set [9] it was 0.0167 h. At hERG (KCNH2) [5], this molecule showed an inhibition at 1 µM of 34%. Further, in [2], the DC50 worked out at 3.44 nM. In data set [3], the Emax amounted to 89%.
Regarding `Cn1c(=O)n(C2CCC(=O)NC2=O)c2cccc(C#CCO[C@H]3CC[C@@H](CN4CCC5(Cc6cc(NC(=O)c7cnn8cccnc78)c(N7CCC(CO)CC7)cc6O5)C4)CC3)c21` (stereo partly drawn), 1 µM produced 29% inhibition against hERG (KCNH2) [5]. Further, the DC50 in [2] was determined as 7.79 nM. In data set [3], the Emax worked out at 90%. In addition, the half-life at 1 µM in data set [7] turned out to be 0.55 h; in data set [8], 0.517 h; in data set [9] it was 0.583 h.
As to `Cn1c(=O)n(C2CCC(=O)NC2=O)c2cccc(C#CCO[C@H]3CC[C@H](CN4CCC5(CC4)Cc4cc(NC(=O)c6cnn7cccnc67)c(OCCC(C)(C)O)cc4O5)CC3)c21` (stereo partly drawn), the DC50 in [2] came out at 9.37 nM. For the same molecule, the Emax in data set [3] turned out to be 49%.
`Cn1c(=O)n(C2CCC(=O)NC2=O)c2cccc(C#CCO[C@H]3CC[C@H](CN4CCC5(CCc6cc(NC(=O)c7cnn8cccnc78)c(N7CCC(CO)CC7)cc6O5)CC4)CC3)c21` (stereo partly drawn): in data set [2], the DC50 stood at 8.48 nM. Also, the Emax in data set [3] amounted to 46%.
For `Cn1c(=O)n(C2CCC(=O)NC2=O)c2cccc(C#CCO[C@H]3CC[C@H](CN4CCC5(CC4)Oc4cc(N6CCC(CO)CC6)c(NC(=O)c6cnn7cccnc67)cc4C5=O)CC3)c21` (stereo partly drawn), in that order: 1000 nM and 20%.
`Cc1cnc2c(C(=O)Nc3cc4c(cc3N3CCC(CO)CC3)OC3(CCN(C[C@H]5CC[C@H](OCC#Cc6cccc7c6n(C)c(=O)n7C6CCC(=O)NC6=O)CC5)CC3)C4)cnn2c1` (stereo partly drawn) yielded an inhibition at 3 µM against hERG (KCNH2) [1] of 17%. In addition, the DC50 in data set [2] stood at 1.52 nM. For the same molecule, the maximal response (Emax) in data set [3] came out at 87%. In addition, the half-life at 1 µM in data set [7], in [8] and in data set [9] was over 3.07 h in each case.
Regarding `Cn1c(=O)n(C2CCC(=O)NC2=O)c2cccc(C#CCOC3CCN(C(=O)CN4CCC5(CC4)Cc4cc(NC(=O)c6cnn7cccnc67)c(N6CCC(CO)CC6)cc4O5)CC3)c21` (stereo not drawn), the DC50 in [2] amounted to 1.92 nM. Besides, the half-life at 1 µM in data set [7] stood at 0.35 h; in [8], 0.0667 h; in [9] it was 0.1 h.
For `Cn1c(=O)n(C2CCC(=O)NC2=O)c2cccc(C#CCO[C@H]3CC[C@H](C(=O)N4CCC5(CC4)Cc4cc(NC(=O)c6cnn7cccnc67)c(N6CCC(CO)CC6)cc4O5)CC3)c21` (stereo partly drawn), the inhibition at 1 µM on hERG (KCNH2) [5] was 2%. In [2], the DC50 was found to be 2.78 nM. The Emax in data set [3] was found to be 86%. Besides, the half-life at 1 µM in data set [7] was 1.05 h; in data set [8], 0.65 h; in data set [9] it was over 3.07 h.
Take `Cn1c(=O)n(C2CCC(=O)NC2=O)c2cccc(C#CCO[C@H]3CC[C@H](CN4CCC5(CC4)Cc4cc(NC(=O)c6cnn7cc(Cl)cnc67)c(N6CCC(CO)CC6)cc4O5)CC3)c21` (stereo partly drawn): the half-life at 1 µM in data set [4] was 2.1 h; in data set [6] it was 1.87 h; in [7], 1.3 h; in data set [8], over 3.07 h; in [9] it was over 3.07 h. For the same molecule, the inhibition at 3 µM against hERG (KCNH2) [1] stood at 2%. In data set [2], the DC50 turned out to be 2.27 nM. Also, the Emax in [3] is 87%.
On hERG (KCNH2) [1], `Cn1c(=O)n(C2CCC(=O)NC2=O)c2cccc(C#CCO[C@H]3CC[C@](F)(CN4CCC5(CC4)Cc4cc(NC(=O)c6cnn7cccnc67)c(N6CCC(CO)CC6)cc4O5)CC3)c21` (stereo partly drawn) had an inhibition at 3 µM of 8%. Also, in [3], the Emax was 88%. The half-life at 1 µM in data set [7], in data set [8] and in data set [9] was over 3.07 h in each case.
As to `Cn1c(=O)n(C2CCC(=O)NC2=O)c2cccc(C#CCO[C@H]3CC[C@@](F)(CN4CCC5(CC4)Cc4cc(NC(=O)c6cnn7cccnc67)c(N6CCC(CO)CC6)cc4O5)CC3)c21` (stereo partly drawn), at 1 µM the inhibition on hERG (KCNH2) [5] was 8%. In data set [2], the DC50 was determined as 14.8 nM. Moreover, in data set [3], the Emax came out at 91%. In addition, the half-life at 1 µM in data set [7] was determined as 0.267 h; in [8], 0.117 h; in [9] it was 0.0167 h.
Take `CN(CCO)c1cc2c(cc1NC(=O)c1cnn3cccnc13)CC1(CCN(C[C@H]3CC[C@H](OCC#Cc4cccc5c4n(C)c(=O)n5C4CCC(=O)NC4=O)CC3)CC1)O2` (stereo partly drawn): the DC50 in [2] came to 6.44 nM. Besides, in data set [3], the Emax stood at 44%.
On to `Cn1c(=O)n(C2CCC(=O)NC2=O)c2cccc(C#CCOC3CCN(CCN4CCC5(CC4)Cc4cc(NC(=O)c6cnn7cccnc67)c(N6CCC(CO)CC6)cc4O5)CC3)c21` (stereo not drawn), for which the half-life at 1 µM is 1.47 h in data set [4]; 0.0333 h in data set [6]; over 3.07 h in data set [7]; 0.383 h in data set [8]; 1.47 h in [9]. For the same molecule, in [2], the DC50 is 2.18 nM. The Emax in data set [3] stood at 88%.
In the case of `Cn1c(=O)n(C2CCC(=O)NC2=O)c2cccc(C#CCO[C@H]3CC[C@@H](CN4CCC5(CC4)Cc4cc(NC(=O)c6coc7cccnc67)c(N6CCC(CO)CC6)cc4O5)CC3)c21` (stereo partly drawn), the inhibition at 1 µM against hERG (KCNH2) [5] is 29%. For the same molecule, the DC50 in [2] came out at 3.69 nM. Further, in [3], the Emax worked out at 86%. Also, the half-life at 1 µM was 2.05 h in [7], 0.333 h in data set [8] and 0.967 h in [9].
For `COCC1CCN(c2cc3c(cc2NC(=O)c2cnn4cccnc24)CC2(CCN(C[C@H]4CC[C@H](OCC#Cc5cccc6c5n(C)c(=O)n6C5CCC(=O)NC5=O)CC4)CC2)O3)CC1` (stereo partly drawn), the DC50 in data set [2] was found to be 3.9 nM. Moreover, the Emax in [3] came out at 62%.
For `CN(CCCO)c1cc2c(cc1NC(=O)c1cnn3cccnc13)CC1(CCN(C[C@H]3CC[C@H](OCC#Cc4cccc5c4n(C)c(=O)n5C4CCC(=O)NC4=O)CC3)CC1)O2` (stereo partly drawn), in that order: 6.92 nM and 68%.
The like results for `Cn1c(=O)n(C2CCC(=O)NC2=O)c2cccc(C#CCO[C@H]3CC[C@H](CN4CCC5(CC4)Cc4cc(NC(=O)c6cnn7cccnc67)c(OC(F)F)cc4O5)CC3)c21` (stereo partly drawn) were, in that order, 13 nM and 83%.
In turn, `Cn1c(=O)n(C2CCC(=O)NC2=O)c2cccc(C#CCN3CCN(CC(=O)N4CCC5(CC4)Cc4cc(NC(=O)c6cnn7cccnc67)c(N6CCC(CO)CC6)cc4O5)CC3)c21` (stereo not drawn) showed an inhibition at 3 µM at hERG (KCNH2) [1] of 18%. The DC50 in [2] was 2.76 nM. In addition, the half-life at 1 µM in data set [7] was determined as 1.4 h; in data set [8], 0.05 h; in data set [9], 1.22 h.
Take `Cn1c(=O)n(C2CCC(=O)NC2=O)c2cccc(C#CCO[C@H]3CC[C@H](CN4CCC5(CC4)Cc4cc(NC(=O)c6cnn7cccnc67)c(N6CCC(F)CC6)cc4O5)CC3)c21` (stereo partly drawn): the DC50 in data set [2] turned out to be 6.38 nM. The Emax in data set [3] worked out at 85%.
`Cc1cc(-c2nc(C(=O)Nc3cc4c(cc3N3CCC(CO)CC3)OC3(CCN(C[C@H]5CC[C@H](OCC#Cc6cccc7c6n(C)c(=O)n7C6CCC(=O)NC6=O)CC5)CC3)C4)co2)ccn1` (stereo partly drawn) displayed an inhibition at 1 µM against hERG (KCNH2) [5] of 12%. For the same molecule, the DC50 in data set [2] was determined as 6.02 nM. Besides, in data set [3], the Emax was 85%. In addition, the figures for the half-life at 1 µM in data set [7], in [8] and in [9] were 1.68 h, 1.15 h and over 3.07 h, respectively.
Take `Cn1c(=O)n(C2CCC(=O)NC2=O)c2cccc(C#CCO[C@H]3CC[C@H](CN4CCC5(Cc6cc(NC(=O)c7cnn8cccnc78)c(N7CCC(CO)CC7)cc6O5)C4)CC3)c21` (stereo partly drawn): at 1 µM the inhibition against hERG (KCNH2) [5] was 1%. The DC50 in data set [2] is 2 nM. In addition, in data set [3], the Emax is 84%. Further, the half-life at 1 µM was over 3.07 h in data set [7], 1.67 h in data set [8] and over 3.07 h in [9].
